Columns and labels:
[1] = test system: EBV positive human B HG-3 cells; test: PrestoBlue proliferation assay in HG-3 cells; assay type: cell-based; details: 72 hours; for anti-proliferative effect on HG-3 cells (in words): PrestoBlue, FIG. 2 and Table 4; for IC50: Homo sapiens, concentration range 0.03-100 μM, PrestoBlue assay, read-out: Anti-proliferative IC50 values (μM) in HG-3 cells
Protocol: (§1) One million human EBV positive lymphoma cell lines HG3 and LCL070903 (Rosén et al., 2012) were cultured in RPMI1640 media supplemented with 10% FCS. […] Following treatment cells were harvested and washed with 1× PBS. Total RNA was extracted as described below.
(§2) Alamarblue® and PrestoBlue proliferation assays were performed to determine the growth kinetics of EBV inhibitor treated cells. Alamar blue® and PrestoBlue consists of a cell permeable substrate resazurin. In metabolically active and proliferating cells, resazurin is converted to resorufin due to an intrinsic reducing power of live cells and produces a red fluorescence. Therefore production of resorufin serves as an indicator of the viability of the cell population.
(§3) Proliferation assays were performed by seeding 5000 cells/well in a 96 well plate. […] Each concentration was tested in 4 replicates. To determine the growth kinetics, 10 μl of Alamar blue® or PrestoBlue (Invitrogen) was added to each well and incubated for 4 hours. Readout was taken using Tecan F500 (Tecan) multiplate reader or Varioskan LUX (ThermoFisher) multiplate reader.
In brief, HG-3 cells were plated in a 96 well plate and treated with an increasing concentration of compounds.

BMI1 (EBV target gene) [2] = test: EBV target gene downregulation (qPCR) in HG-3 cells: BMI1; assay type: cell-based, human; details: 48 hours; for potency in downregulating EBV pathway (BMI1) compared with 6-(4-tert-butylphenoxy)pyridin-3-amine (in words): 10 μM, qRT-PCR, FIG. 4; for inhibition at 10 µM: Homo sapiens, mRNA by qPCR, Table 5
Protocol: EBV positive human B HG-3 cells were treated with 10 μM of the mentioned compounds for 48 hours. Following treatment, total RNA was extracted and mRNA expression analysed by qRT-PCR.
(§4) One million human EBV positive lymphoma cell lines HG3 and LCL070903 (Rosén et al., 2012) were cultured in RPMI1640 media supplemented with 10% FCS. For RNA expression analysis cells were treated with compounds at 10 μM concentration and for proliferation assay cells were treated at a concentration range of 0.01-100 μM. Following treatment cells were harvested and washed with 1× PBS. Total RNA was extracted as described below.
(§5) Total RNA was extracted from cells using TRIzol® extraction kit (Invitrogen). Briefly, 1×10^6 cells were washed with ice-cold 1× PBS and lysed in 1 ml of TRIzol® solution for 5 minutes at room temperature to dissociate nucleoprotein complexes. Lysed cells were then treated with 200 μl of chloroform and shaked vigorously for 15-30 seconds and incubated at room temperature for 2-3 minutes. The samples were centrifuged at 14000 rpm using Eppendorf table top centrifuge for 10 minutes at 4° C. Following centrifugation, upper aqueous phase was transferred to new eppendorf tubes. To precipitate total RNA 500 μl of […] was added to the separated aqueous phase and incubated at room temperature for 10 minutes. A RNA pellet was obtained by centrifuging the samples at 4° C. for 10 minutes. RNA pellet obtained was washed with 1 ml ice cold 75% ethanol and spun down at 14000 rpm at 4° C. RNA pellet was dried off of excess of ethanol and resuspended in 40 IA DPEC water.
(§6) Total RNA extracted from the cell was used to synthesize cDNA by reverse transcription reaction. Reverse transcription was performed according to one of the two following protocols.
(§7) In first protocol, SuperScript™ RT (Invitrogen) was used for reverse transcription reaction. RNA concentration was measured using NanoDrop®ND-1000 spectrophotometer (Witec AG) and 500 ng of total RNA was mixed with a 10 mM mix of dNTPs and 100 ng of random primers. The reaction mix was incubated at 65° C. for 5 minutes and quickly incubated on ice for 1 minute. Following incubation on ice, 5× first strand buffer and 0.1M DTT were added and mix was incubated for 2 minutes at 25° C. To start the reverse transcription reaction, 200U of SuperScrip™ II RT was added to the reaction mix and incubated at 42° C. for 50 minutes. The reaction was stopped by incubating the reaction mix at 75° C. for 15 minutes.
(§8) In second protocol, reverse transcription was performed using PrimeScript RT Master Mix (Takara). RNA concentration was measured using NanoDrop®ND-1000 spectrophotometer (Witec AG) and 1 μg of total RNA was mixed with 4 μL 5X PrimeScript RT Master Mix in a total reaction volume of 20 μL. The reaction mix was incubated at 37° C. for 15 minutes followed by heat inactivation at 85° C. for 5 seconds.
(§9) QRT-PCR was carried out using 7900 HT Fast Real-Time PCR system (Applied Biosystems) or QuantStudio 3 system (ThermoFisher). Briefly, 12.5 ng of template cDNA was used with a primer concentration of 0.5 μM each and lx SYBR Green dye in a final volume of 10 μL in a 96 well or 384 well plate format.
(§10) Upon infection of human cells, EBV is known to induce cancerous transformation of cells via upregulation of host as well as viral genes (e.g LMP1, EBNA2, BATF1, BMI1 and CD21). To determine the ability of compounds to downregulate EBV driven gene expression, HG-3 and LCL070903 cells were treated with selected compounds and percentage inhibition of EBV target genes was determined by quantitative PCR. As shown in Table 5 and Table 6, compounds down regulate EBV target genes such as BMI1 in HG-3 and LCL070903 cells, respectively (FIGS. 3 and 4).

LMP1 = test: EBV target gene downregulation (qPCR) in LCL070903 cells: LMP1; assay type: cell-based; details: Homo sapiens, mRNA by qPCR, Table 6
Protocol: as §4
(§11) Total RNA was extracted from cells using TRIzol® extraction kit (Invitrogen). Briefly, 1×10^6 cells were washed with ice-cold 1× PBS and lysed in 1 ml of TRIzol® solution for 5 minutes at room temperature to dissociate nucleoprotein complexes. Lysed cells were then treated with 200 μl of chloroform and shaked vigorously for 15-30 seconds and incubated at room temperature for 2-3 minutes. […]
(§12) In first protocol, SuperScript™ RT (Invitrogen) was used for reverse transcription reaction. RNA concentration was measured using NanoDrop®ND-1000 spectrophotometer (Witec AG) and 500 ng of total RNA was mixed with a 10 mM mix of dNTPs and 100 ng of random primers. […]
(§13) In second protocol, reverse transcription was performed using PrimeScript RT Master Mix (Takara). RNA concentration was measured using NanoDrop®ND-1000 spectrophotometer (Witec AG) and 1 μg of total RNA was mixed with 4 μL 5X PrimeScript RT Master Mix in a total reaction volume of 20 μL. […]

EBNA2 [3] = test: EBV target gene downregulation (qPCR) in LCL070903 cells: EBNA2; assay type: cell-based; details: Homo sapiens, mRNA by qPCR, Table 6
Protocol: as §4, §5, §6, §7, §8, §9, §10

BMI1 (EBV target gene) [4] = test: EBV target gene downregulation (qPCR) in LCL070903 cells: BMI1; assay type: cell-based, human; details: 48 hours; for potency in downregulating EBV pathway (BMI1) compared with 6-(4-tert-butylphenoxy)pyridin-3-amine (in words): 10 μM, qRT-PCR, FIG. 3; for inhibition at 10 µM: Homo sapiens, mRNA by qPCR, Table 6
Protocol: EBV positive human B LCL070903 cells were treated with 10 μM of the mentioned compounds for 48 hours. Following treatment, total RNA was extracted and mRNA expression analysed by qRT-PCR.
as §4, §5, §6, §7, §8, §9, §10

CD21 [5] = test: EBV target gene downregulation (qPCR) in LCL070903 cells: CD21; assay type: cell-based; details: Homo sapiens, mRNA by qPCR, Table 6
Protocol: as §4
as §5, with “A RNA pellet was obtained by centrifuging the samples at 4° C. for 10 minutes. RNA pellet obtained was washed with 1 ml ice cold 75% ethanol and spun down at 14000 rpm at 4° C. RNA pellet was dried off of excess of ethanol and resuspended in 40 IA DPEC water.” left out
as §12, §13
as §10, with “As shown in Table 5 and Table 6, compounds down regulate EBV target genes such as BMI1 in HG-3 and LCL070903 cells, respectively (FIGS. 3 and 4).” left out

[6] = test system: EBV positive human lymphoma HG-3 cells; test: Alamar blue proliferation assay in HG-3 cells; assay type: cell-based; details: 72 hours
Protocol: as §1, §2, §3
In order to determine anti-cancer activity of compounds in oncoviral driven cells, an EBV infected human Chronic Lymphocytic Leukemia cell line HG-3 was used (Rosen et al., 2012). In brief, HG-3 cells were plated in a 96 well plate and treated with an increasing concentration of compounds.

BATF1 = test: EBV target gene downregulation (qPCR) in HG-3 cells: BATF1; assay type: cell-based; details: Homo sapiens, mRNA by qPCR, Table 2
Protocol: as §4, §11, §12, §13

CD21 [7] = test: EBV target gene downregulation (qPCR) in HG-3 cells: CD21; assay type: cell-based; details: Homo sapiens, mRNA by qPCR, Table 2
Protocol: as §4, §11, §12, §13

NOTCH target gene HES1 = NOTCH target gene HES1 downregulation in RPMI 8402 cells; assay type: cell-based, human; design: Percentage inhibition of NOTCH target gene HES1: concentration or dose not given beside the values; details: RPMI 8402 cells (NOTCH1 positive, EBV negative)
Protocol: as §5, §6, §9
(§14) To determine the ability of compounds to downregulate EBV driven gene expression, HG-3 cells were treated with selected compounds and percentage inhibition of EBV target genes was determined by quantitative PCR. […] To further determine the anti-oncoviral specificity of compounds, these compounds were tested for their ability to downregulate a NOTCH target gene HES1 in a NOTCH1 positive (EBV negative) human leukemic cell line RPMI8402.

EBNA2 [8] = test: EBV target gene downregulation (qPCR) in HG-3 cells: EBNA2; assay type: cell-based; details: Homo sapiens, mRNA by qPCR, Table 5
Protocol: as §4, §5, §6, §7, §8, §9, §14, §10

With `c1ccc(-c2ccc(Oc3ccc(NCc4cccnc4)cn3)cn2)cc1` [Example 21, 6-((6-Phenylpyridin-3-yl)oxy)-N-(pyridin-3-ylmethyl)pyridin-3-amine] the “anti-proliferative effect on HG-3 cells (in words)” value (“anti-proliferative effect” for short) [1] was “demonstrate anti-proliferative effect”, the IC50 [1] was 3.8 µM and the “potency in downregulating EBV pathway (BMI1) compared with 6-(4-tert-butylphenoxy)pyridin-3-amine (in words)” value (BMI1 (EBV target gene) [2]) was “enhanced potency”. For the same molecule, the inhibition at 10 µM (BMI1 (EBV target gene) [2]) was 47%, the inhibition at 10 µM (LMP1) was 12% and the inhibition at 10 µM (EBNA2 [3]) was 50%. The “potency in downregulating EBV pathway (BMI1) compared with 6-(4-tert-butylphenoxy)pyridin-3-amine (in words)” value (BMI1 (EBV target gene) [4]) was “enhanced potency”, the inhibition at 10 µM (BMI1 (EBV target gene) [4]) was 51% and the inhibition at 10 µM (CD21 [5]) was 9%.
`CC(C)(C)c1ccc(Oc2ccc(NCc3cccnc3)cn2)cc1` [Example 2, 6-(4-(tert-Butyl)phenoxy)-N-(pyridin-3-ylmethyl)pyridin-3-amine] was tested, and the “anti-proliferative effect” value ([6]; Alamar blue, FIG. 1 and Table 1) was “demonstrate anti-proliferative effect”, the IC50 ([6]; Homo sapiens, concentration range 0.01-10 μM, Alamar blue assay, read-out: Anti-proliferative IC50 values) was 2200 nM and the inhibition at 10 µM (BATF1) was over 90%. For the same molecule, the inhibition at 10 µM (CD21 [7]) was over 90%, the “Percentage inhibition of NOTCH target gene HES1” value (NOTCH target gene HES1) was 0% and the “downregulation of NOTCH target gene HES1 (in words)” value (NOTCH target gene HES1) was “do not modulate expression of this gene”.
With `Cc1ccccc1-c1ccc(Oc2ccc(NCc3cccnc3)cc2)cc1C` [Example 28, 4-((2,2′-Dimethyl-[1,1′-biphenyl]-4-yl)oxy)-N-(pyridin-3-ylmethy)aniline] the “anti-proliferative effect” value [1] was “demonstrate anti-proliferative effect”, the IC50 [1] was 1.5 µM and the inhibition at 10 µM (EBNA2 [8]) was 36%. The “potency in downregulating EBV pathway (BMI1) compared with 6-(4-tert-butylphenoxy)pyridin-3-amine (in words)” value (BMI1 (EBV target gene) [2]) was “enhanced potency”, the inhibition at 10 µM (BMI1 (EBV target gene) [2]) was 51% and the inhibition at 10 µM (LMP1) was 24%. The inhibition at 10 µM (EBNA2 [3]) was 43%, the “potency in downregulating EBV pathway (BMI1) compared with 6-(4-tert-butylphenoxy)pyridin-3-amine (in words)” value (BMI1 (EBV target gene) [4]) was “enhanced potency” and the inhibition at 10 µM (BMI1 (EBV target gene) [4]) was 61%. The inhibition at 10 µM (CD21 [5]) was 1%.

— patent US20220185793A1, “COMPOUNDS FOR THE TREATMENT OF ONCOVIRUS INDUCED CANCER AND METHODS OF USE THEREOF” (Cellestia Biotech AG, priority 2019, published 2022)
